Measurements taken from patent publication US10426815B2, “Prevention and treatment of itch with an MRGPR antagonist” (THE GENERAL HOSPITAL CORPORATION, priority 2015, dated 2019).

Biological target: T1, hMRGPRX2 (Homo sapiens, UniProt Q96LB1)
T1 construct: expressed in transfected cells
T1 sequence (Q96LB1 1-330): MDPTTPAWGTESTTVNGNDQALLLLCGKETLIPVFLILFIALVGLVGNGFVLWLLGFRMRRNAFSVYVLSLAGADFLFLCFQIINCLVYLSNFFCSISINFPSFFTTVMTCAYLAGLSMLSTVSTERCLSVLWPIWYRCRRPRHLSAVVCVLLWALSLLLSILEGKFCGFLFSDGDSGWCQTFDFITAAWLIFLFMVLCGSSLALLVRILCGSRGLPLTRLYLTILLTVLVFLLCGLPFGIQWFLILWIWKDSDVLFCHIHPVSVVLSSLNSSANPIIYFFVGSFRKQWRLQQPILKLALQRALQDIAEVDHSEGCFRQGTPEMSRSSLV
Assay: Concentration-effect curves of substance P versus QWF, stable HEK-293 cell line
Assay type: cell-based
Conditions: stable HEK-293 clone; experiment done once, triplicate points
Description: Concentration-effect curves with substance P versus the indicated concentrations of QWF on a stable HEK-293 cell line expressing hMRGPRX2. HEK293 cells were transfected with a pcDNA3.1(−) vector containing MRGPRX2 cDNA and clones resistant to […] (G418) were selected. The data were generated from one of those clones. The experiment was done once with each data point done in triplicate. Error bars represent+/−SEM.

In the case of “Boc-Gln-D-Trp(Formyl)-Phe benzyl ester trifluoroacetate [QWF]”, the “mode of QWF antagonism of substance P at hMRGPRX2” value is reported as “competitive antagonist”.
